For assay [1], the system named is Stage 5 gametocytes from P. falciparum NF54. As to the kind of experiment: Late-stage (stage V) gametocyte survival assay, MitoTracker. The class given is cell-based, Plasmodium falciparum. The conditions noted are these: for EC50: Plasmodium falciparum, P. falciparum NF54, 72 h, read-out: Stage 5 Gametocyte EC50; for EC50 fold shift compared to asexual stage: Stage 5 Gametocyte EC50: gametocyte EC50 / 3D7 EC50. A digest of the protocol: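 Synchronized P. falciparum NF54 stage V gametocytes were exposed to compound (1.25 μM or 12.5 μM) for 72 h. MitoTracker Red CMXRos (500 nM final) was then added with saponin to lyse RBCs, and plates were imaged by high-content fluorescence. The readout was the number of metabolically active gametocytes per well.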

The subject of assay [2] is ATQ-R5 (cytb F267V, parent 3D7). As to the kind of experiment: Cross-resistance EC50 assay, ATQ-R5. It is filed as cell-based, Plasmodium falciparum. Conditions: Plasmodium falciparum, 3D7; SYBR green 72 hour assay; asynchronized parasites; 96-well or 1536-well format; ATQ-R5. An excerpt: (§1) To evaluate potential overlapping activity against known antimalarial drug targets, we performed dose-response studies with each compound against our assembled set of drug-resistant lines and their corresponding parents, in an asexual blood stage proliferation assay (Table 1). Comparisons were made to the drug-sensitive strain 3D7 when a parent was unavailable (TM90C2A, W2 and Dd2). As laboratories conducted EC50 assays with different strains and protocols, all comparisons were made between assays from the same laboratory and under the same assay conditions. Compounds displaying >5-fold EC50 shifts relative to the parent or sensitive strain were flagged as having potentially non-novel targets. Average fold shifts per strain ranged from 0.82 to 2.34, with a median of 1.23 indicating there was not common resistance to any one resistant clone. No resistance patterns were observed when classifying the compounds based on chemical structure, but this was not surprising given the diversity of compounds chosen. On the other hand, given that these confirmed compounds were derived from larger unconfirmed hit lists to which some filtration criteria may have been applied (for example, elimination of obvious dihydrofolate reductase inhibitors[32]), some[10][11][12][13] pre-existing bias may exist in the set. […]
(§2) Alternatively, a SYBR Green-based proliferation approach was used for the 72-h assay, as previously described. Briefly, a culture of either synchronized or asynchronous parasitized RBCs (0.3% parasitemia and 4% haematocrit) in screening medium (identical to supplemented medium above except no serum was added) was exposed to serial drug dilutions. Plates were incubated at 37 °C and gassed with 93% N2, 4% CO2 and 3% O2 for 72 h. Following incubation, 10 × SYBR Green I (Invitrogen; supplied in 10,000 × concentration) in lysis buffer ([…], 5 mM EDTA, 0.16% Saponin wt per vol and 1.6% Triton X vol per vol) was added to the wells and the plates were incubated overnight at room temperature before plate reading. EC50 assays were repeated three times, taking the average EC50 value from each assay set, and removing any outliers using a single iteration of Grubbs' test, eliminating values with z-scores above the critical z-value (α=0.05). The raw EC50 values for synchronized parasites assayed in a 384-well format are listed in Supplementary Data 4. The raw EC50 values for asynchronous parasites assayed in a 96 or 1536-well format are listed in Supplementary Data 5.
(§3) EC50 values for each strain were compared with those of the corresponding parent strain to determine fold-shift changes and identify resistance. To minimize the cause variance between assays, all comparisons were conducted between strains assayed under identical conditions. A one-way ANOVA followed by a Dunnet's post-test was conducted in GraphPad Prism to identify significant changes between the parent and resistant strain.

For assay [3], the system named is GNF156R (PfCARL L830V, S1076I and M81I, parent Dd2). Description: Cross-resistance EC50 assay, GNF156R. The class given is cell-based. Conditions: Plasmodium falciparum, SYBR green 72 hour assay, asynchronized parasites, 96-well or 1536-well format.
Source text: as §1, §2, §3

The test system of assay [4] is TM90C2A (DHFR, folate pathway; compared with 3D7). As to the kind of experiment: Cross-resistance EC50 assay, TM90C2A. The class given is cell-based. The conditions noted are these: Plasmodium falciparum, 48 h, read-out: TM90C2A (3D7 Parent) Average EC50. A digest of the protocol:
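Readout: ³H-hypoxanthine incorporation (48 h; 2 μM artesunate as negative control) or SYBR Green I fluorescence after overnight lysis (72 h, serum-free medium, synchronized or asynchronous cultures). Values are EC50s, compared as fold shift with parent or 3D7; >5-fold flagged.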

Molecules are shown by their SMILES. A value given as a limit tells only on which side of the number the result lay.

The term EC50 denotes the concentration that produces a half-maximal response.

`O=C(Nc1ccccc1O)c1ccc(Oc2cccc(C(=O)Nc3ccccc3O)c2)cc1` [MMV665888]: the half-maximal effective concentration (EC50) in assay [1] came to 2980 nM; in assay [2], 0.989 µM; in assay [3] it was 0.67 µM; in assay [4] it was 1040 nM. Moreover, in assay [1], the “EC50 fold shift compared to asexual stage: Stage 5 Gametocyte EC50” value (“EC50 fold shift” for short) came out at 2.46.

For the molecule `COc1ccc(C(=O)C2CC2c2ccc(Cl)cc2)cc1` (centres unmarked) [MMV665924], the EC50 in assay [1] is greater than 1250 nM; in assay [2], 3.63 µM; in assay [3], 1.17 µM; in assay [4], 1600 nM. For the same molecule, the “EC50 fold shift” value in assay [1] was greater than 1.5.

Consider `CCC(C)NCC(O)(c1ccc(Cl)cc1)c1ccc(Cl)cc1` (centres unmarked) [MMV665928], for which the EC50 in assay [1] was greater than 1250 nM; in assay [2] it was 0.074 µM; in assay [3] it was 0.682 µM; in assay [4] it was 432 nM. Besides, the “EC50 fold shift” value in assay [1] was greater than 2.5.

In the case of `O=C(Nc1ccsc1C(=O)NC1CCCCC1)c1ccc(F)cc1` [MMV665939], the half-maximal effective concentration (EC50) in assay [1] was greater than 1250 nM; in assay [2], 3.43 µM; in assay [3] it was 1.28 µM; in assay [4], 1350 nM.

`Nc1ccc(-c2nc3cc(Cc4ccc5[nH]c(-c6ccc(N)cc6)nc5c4)ccc3[nH]2)cc1` [MMV665943]: the 50% effective concentration (EC50) in assay [1] is 407 nM; in assay [2], 0.042 µM; in assay [3], 0.399 µM; in assay [4], 298 nM. The “EC50 fold shift” value in assay [1] is given as 1.29.

In the case of `O=C(NC(c1ccccc1)c1ccc2cccnc2c1O)c1ccccc1` (centres unmarked) [MMV666080], the EC50 was found to be 7210 nM in assay [1], 0.756 µM in assay [2], 0.822 µM in assay [3] and 860 nM in assay [4]. Besides, in assay [1], the “EC50 fold shift” value is 8.53.

Turning to `COc1cc(C(=O)ON=C(N)Cc2cccc3ccccc23)cc(OC)c1OC` [MMV666687], the EC50 in assay [1] was 4340 nM; in assay [2], 0.914 µM; in assay [3] it was 0.611 µM; in assay [4] it was 180 nM.

Consider `c1cc(-c2cnc3ccc(-c4ccc(N5CCOCC5)cc4)nn23)ccn1` [MMV668311], for which the EC50 in assay [1] was 879 nM; in assay [2] it was 0.029 µM; in assay [3], 0.031 µM; in assay [4] it was 86 nM. Moreover, the “EC50 fold shift” value in assay [1] came out at 18.31.

For the molecule `c1cncc(-c2cc(N3CCC(CN4CCOCC4)CC3)nc(-c3ccncc3)n2)c1` [MMV668399], the EC50 in assay [1] is greater than 12500 nM; in assay [2], 0.339 µM; in assay [3] it was 0.827 µM; in assay [4] it was 86 nM.

In the case of `CN(C)CCCNCc1ccc(-c2ccc(Cl)c(Cl)c2)o1` [MMV673964], the EC50 worked out at 1130 nM in assay [1], 0.108 µM in assay [2], 1.33 µM in assay [3] and 569 nM in assay [4]. Also, in assay [1], the “EC50 fold shift” value is recorded as 1.86.

(Values after PMC4912613, “A broad analysis of resistance development in the malaria parasite” (Nature Communications, 2016).)
